A short description of series [1]: Pharmacokinetic evaluation of QC-56 in mouse brain. The format is in vivo. As to conditions: brain tissue, i.v. tail vein injection. The text has this:
Regular male CD1 mice, 6 weeks old, were obtained from Charles River Laboratories, St. Zotique, PQ, Canada. The mice weighed 22-28 g. The experiments were approved by the Animal Care Committee, McGill University, Montreal, Quebec. The animals were housed in individual cages and were fed standard rodent chow and water ad libitum. […] In this case, mice were anesthetized using isoflurane-based system (DISPOMED, MODUFLEX COMPACT NRB, 3975-0800-000). […] Serum was collected after the samples were centrifuged 2200×, 4° C. for 20 minutes and stored at −80° C. until analysis. For the brain tissue collection, skin of mice was removed and brain was carefully dissected out from the skull, transferred into a Petri dish, briefly washed with ice-cold phosphate-buffered saline (PBS), and immediately stored at −80° C. until further analysis.
The assay of QC-56 in mouse brain samples was carried out using a qualified LC/MS/MS assay method.

Another series relates to rat C6 glioma cells. The series is described as follows: Cell proliferation, [3H]thymidine incorporation, rat C6 glioma cells. The format is cell-based. Particulars: 6.5 μM, 18 h, hHO-1-transfected rat C6 glioma cells; hydrochloride. Here is the method:
Rat C6 glioma cells were cultivated in high glucose DMEM supplemented with 10% heat-inactivated fetal bovine serum, […], and penicillin-streptomycin (50 U/mL and 50 μg/mL, respectively). […] All cultures were incubated at 37° C. in humidified 95% air-5% CO2.
Cells were seeded in 24-well plates at 1×10^6 cells/mL/well. Upon reaching >90% confluence, cells in each well were transiently transfected with 1.6 μg of plasmid DNA-Lipofectamine 2000 complex using Lipofectamine 2000 method according to manufacturer instructions (Invitrogen). 1.6 μg of plasmid DNA and 4 μL of Lipofectamine 2000 reagent were diluted individually in 100 μL opti-MEM I and incubated for 5 minutes at room temperature with gentle mixing. […]
Cell proliferation was determined by [^3H]thymidine incorporation: Cells were plated in 24-well plates at 10^6 cells/mL/well in complete medium. […] The cells were trypsinized and collected, air-dried on 21 mm glass microfibre filters (Whatman International Ltd., Maidstone, England) and analyzed by scintillation counting in a Wallac-Liquid Scintillator Counter (Perkin Elmer Life Sciences, Boston, Mass., USA). [^3H]thymidine incorporation was expressed as counts per min (cpm) per mL.
Background: Incorporation of labelled thymidine or its analogues reports DNA synthesis.

The subject of the next series is SKMEL-V+ cells. The series is described as follows: Melanoma efficacy study of QC-199, SKMEL-V+ cells s.c. in Scid mice. As to conditions: for reduction of tumor volume vs vehicle: 2 cycles. The format is in vivo, human. Here is the method: BD PharMingen, San Diego, Calif.). Cryostat sections were used for CD31 staining. […] Sections were rehydrated in PBS and then blocked with 5% normal goat serum for 1 h. The sections were then incubated overnight at 4° C. with CD31 antibody diluted 1:25 in 3% BSA-PBS. […] Sections were counterstained with Harris' hematoxylin and mounted. Slides were analyzed by conventional light microscopy and photographed using color slides (Eastman Kodak, Rochester, N.Y.). Balb/c Scid mice, 6 week-old, were obtained from Charles River Laboratories, St. Zotique, PQ, Canada. The mice weighed 18-22 g. The experiments were approved by the Animal Care Committee, McGill University, Montreal. The animals were housed in individual cages (4 per cage) and were fed standard rodent chow and water ad libitum. […] When the tumors become palpable (size of a rice), mice weights were measured with a digital balance accurate to 0.05 g. […] For the infusion, mice were anesthetized using isoflurane-based system ([…] COMPACT NRB, 3975-0800-000). For the infusion, a mini pump (NE-1800, New Era Pump Systems, Inc.) was used to infuse the compound via the tail vein during a 2 h period. […] At experiment termination, mice were anesthetized with isoflurane and sacrificed by cervical dislocation. Tumors were dissected and tumor weights were measured using a digital balance.

Series [2] is described as follows: Pharmacokinetic evaluation of QC-199 in mouse plasma and brain, IP or oral. The format is in vivo. As to conditions: for half-life: from Lambda z; for AUC: read-out: AUCall (0-12); for Cmax: mouse, male CD-1 mice. As to the method:
Regular male CD1 mice, 6 weeks old, were obtained from Charles River Laboratories, St. Zotique, PQ, Canada. The mice weighed 22-28 g. The experiments were approved by the Animal Care Committee, McGill University, Montreal, Quebec. The animals were housed in individual cages and were fed standard rodent chow and water ad libitum. Mice weights were measured with a digital balance accurate to 0.05 g and then received QC-199 at the indicated doses either orally, or via i.p. injections or following i.v. slow infusion. In the case of i.v. injection or i.v. infusion, mice were anesthetized using isoflurane-based system (DISPOMED, MODUFLEX COMPACT NRB, 3975-0800-000). For the infusion, a mini pump (NE-1800, New Era Pump Systems, Inc.) was used to infuse the compound via the tail vein during a 2 h period. In one study, blood and brain tissue samples were collected at various time points after administration of QC-199 using EDTA tubing (Das Original S-Monovette EDTA KE/1.2 ml lot.9094102 and Needle for S-Monovette 22G lot. 8073401) via cardiac puncture and immediately stored at 4° C. Serum was collected after the samples were centrifuged 2200×, 4° C. for 20 minutes and stored at −80° C. until analysis. For the brain tissue collection, skin of mice was removed and brain was carefully dissected out from the skull, transferred into a Petri dish, briefly washed with ice-cold phosphate-buffered saline (PBS), and immediately stored at −80° C. until further analysis.
The assay of QC-199 in mouse plasma and brain samples was carried out using qualified LC/MS/MS assay methods.

We go through two compounds from US20140155445A1, “Compounds and Methods for Treating Cancer and Diseases of the Central Nervous System” (Osta Biotechnologies Inc., priority 2007, published 2014).

Where two headings read alike, the source gives them in different places. Some results are limits rather than exact numbers.

For `Brc1ccc(CCC2(Cn3ccnc3)OCCO2)cc1.Cl` [QC-56, 1-((2-(2-(4-Bromophenyl)ethyl)-1,3-dioxolan-2-yl)methyl)-1H-imidazole hydrochloride], the “time of maximal brain concentration” value in series [1] was determined as 1 min. Further, in series [1] (male CD-1 mice), the “AUC0→3 hrs” value came out at 60.3 µg·h/g, the “AUC0→inf” value is 158 µg·h/g and the “T1/2z” value amounted to 4.30 h. Besides, in series [1] (male, CD-1, mouse, iv, read-out: brain concentration at 180 min post-dose), the concentration at 180 min was determined as 15800 ± 800 ng/g. Further, the peak concentration (Cmax) (usually the maximum level reached in the sampled fluid or tissue) in series [1] (mouse, iv, male CD-1 mice) came to 50200 ± 3200 ng/g. Further, the “effect of hHO-1 transfection on 3H-thymidine incorporation” value in the series with rat C6 glioma cells is “significantly attenuated”.

As for `Brc1ccc(CCCCn2ccnc2)cc1.Cl` [QC-199, 1-[4-(4-bromophenyl)butyl]-1H-imidazole hydrochloride], the “reduction of tumor volume vs vehicle” value worked out at 30% in the series with SKMEL-V+ cells (30 mg/kg i.v. infusion, d1, 3, 5 per cycle); 52% in the series on SKMEL-V+ cells (60 mg/kg i.v. infusion, d1, 3, 5 per cycle, p less than 0.05); 69% in the series with SKMEL-V+ cells (200 mg/kg i.v. infusion, d1, 5 per cycle, p less than 0.01); 78% in the series on SKMEL-V+ cells (1000 mg/kg i.v. infusion, d1, 5 per cycle, p less than 0.01). The “vascularization of dissected tumors (H&E staining)” value in the series on SKMEL-V+ cells (QC-199 30-1000 mg/kg) is reported as “dose dependent reduction in vascularization”. Moreover, the “% Extrapolated AUC” value in series [2] (brain, IP 60 mg/kg) is listed as 13%; in series [2] (brain, Oral 60 mg/kg) it was 37%. Further, the “AUC(0-inf)” value turned out to be 427 µg·h/g in series [2] (brain, IP 60 mg/kg); 361 µg·h/g in series [2] (brain, Oral 60 mg/kg); 85000 ng·h/mL in series [2] (male, CD-1, mouse, in vivo, plasma, IP 60 mg/kg, read-out: AUC0-inf); 67000 ng·h/mL in series [2] (male, CD-1, mouse, in vivo, plasma, Oral 60 mg/kg, read-out: AUC0-inf). The “AUCall (0-12)” value in series [2] (brain, IP 60 mg/kg) turned out to be 370 µg·h/g; in series [2] (brain, Oral 60 mg/kg) it was 227 µg·h/g. Also, the oral bioavailability result in series [2] (from oral-to-IP AUC ratios in brain and plasma) is reported as “moderately high oral bioavailability”. The concentration at 5 min in series [2] (male, CD-1, mouse, brain, 60 mg/kg, IP or oral administration, above the upper calibration range, read-out: brain tissue concentration at 5 min post-dose) was more than 10000 ng/g. The half-life – broadly, the time in which the quantity being followed falls by half – is 4.3 h in series [2] (male, CD-1, mouse, in vivo, ip, 60 mg/kg, brain, IP 60 mg/kg); 4.8 h in series [2] (male, CD-1, mouse, in vivo, ip, 60 mg/kg, plasma, IP 60 mg/kg); 8.6 h in series [2] (male, CD-1, mouse, in vivo, po, 60 mg/kg, brain, Oral 60 mg/kg); 7.1 h in series [2] (male, CD-1, mouse, in vivo, po, 60 mg/kg, plasma, Oral 60 mg/kg). Also, the time of peak concentration (Tmax) (usually the time from dosing to the highest level) in series [2] (male, CD-1, mouse, in vivo, brain, IP 60 mg/kg) is 0.167 h; in series [2] (male, CD-1, mouse, in vivo, brain, Oral 60 mg/kg), 0.167 h. Besides, the AUC in series [2] (male, CD-1, mouse, in vivo, plasma, IP 60 mg/kg) was 72000 ng·h/mL; in series [2] (male, CD-1, mouse, in vivo, plasma, Oral 60 mg/kg) it was 47000 ng·h/mL. The Cmax in series [2] (in vivo, brain, IP 60 mg/kg) is 79000 ± 2200 ng/g; in series [2] (in vivo, brain, Oral 60 mg/kg), 39000 ± 2700 ng/g; in series [2] (in vivo, plasma, IP 60 mg/kg), 20000 ± 1200 ng/mL; in series [2] (in vivo, plasma, Oral 60 mg/kg), 9100 ± 800 ng/mL. Besides, the AUC_%Extrap_obs in series [2] (plasma, IP 60 mg/kg) is 16%; in series [2] (plasma, Oral 60 mg/kg) it was 30%.
